For ten molecules, inhibition results are on record in patent US8268814B2, “Substituted sulfonamide compounds” (Gruenenthal GmbH, priority 2008, dated 2012).

In general, inhibition refers to the relative decrease from the control value, in per cent.

The target in test [1] is T1, human B1R receptor (hB1R) (Homo sapiens, UniProt P46663).
T1 construct: expressed in transfected cells; host or cells: CHO K1 cells (Chinese hamster ovary), stably transfected
T1 sequence (P46663 1-353): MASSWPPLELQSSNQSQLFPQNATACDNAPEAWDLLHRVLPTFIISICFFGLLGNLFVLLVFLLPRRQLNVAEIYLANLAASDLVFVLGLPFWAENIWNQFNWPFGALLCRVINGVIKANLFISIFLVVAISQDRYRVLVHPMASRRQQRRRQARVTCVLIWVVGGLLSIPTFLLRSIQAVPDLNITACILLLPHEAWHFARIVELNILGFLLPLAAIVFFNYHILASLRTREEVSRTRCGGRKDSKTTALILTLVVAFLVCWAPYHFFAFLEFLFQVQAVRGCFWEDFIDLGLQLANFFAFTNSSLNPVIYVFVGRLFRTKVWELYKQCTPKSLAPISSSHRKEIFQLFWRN
Nature of the test: Functional FLIPR Ca2+ assay on the bradykinin 1 receptor, human (hB1R CHO K1 cells). Particulars: test substance 10 μM; CHO K1 cells transfected with human B1R gene; agonist Lys-Des-Arg9-bradykinin at EC80; % inhibition compared with maximum achievable inhibition; read-out: B1R antagonism, human (10 μM] % inhibition. The format is cell-based. In a few lines: (§1)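 Stably transfected CHO K1 cells expressing human or rat B1R, Fluo-4-loaded, Ca2+ influx read by FLIPR (peak fluorescence). Compounds (10 μM for % activation) preincubated 10-20 min, then EC80 agonist added: Lys-Des-Arg9-bradykinin for human, Des-Arg9-bradykinin for rat; % inhibition versus maximal inhibition, IC50 from concentration series.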

Test [2] deals with T2, B1R receptor of the rat (rB1R) (Rattus norvegicus, UniProt P97583).
T2 construct: expressed in transfected cells; host or cells: CHO K1 cells (Chinese hamster ovary), stably transfected
T2 sequence (P97583 1-337): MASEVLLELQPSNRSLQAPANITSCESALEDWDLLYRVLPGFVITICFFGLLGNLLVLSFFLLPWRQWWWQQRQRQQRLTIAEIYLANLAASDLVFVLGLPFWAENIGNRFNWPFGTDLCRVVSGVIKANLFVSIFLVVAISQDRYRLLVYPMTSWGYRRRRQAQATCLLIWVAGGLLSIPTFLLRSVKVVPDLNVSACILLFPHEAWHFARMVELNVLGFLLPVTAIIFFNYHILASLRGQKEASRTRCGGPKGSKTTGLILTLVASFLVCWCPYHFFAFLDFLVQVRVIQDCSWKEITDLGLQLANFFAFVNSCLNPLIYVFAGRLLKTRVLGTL
Nature of the test: Functional FLIPR Ca2+ assay on the bradykinin 1 receptor, rat (rB1R CHO K1 cells). Particulars: test substance 10 μM; CHO K1 cells transfected with rat B1R gene; agonist Des-Arg9-bradykinin at EC80; % inhibition compared with maximum achievable inhibition; read-out: B1R antagonism, rat [10 μM] % inhibition. The format is cell-based. In a few lines:
as §1

Take `COc1cc(C)c(S(=O)(=O)N2CCCCC2COCC(=O)N2CCc3sccc3C2c2ccccc2C)c(C)c1` (centres unmarked) [Example 12, 2-((1-(4-methoxy-2,6-dimethylphenylsulfonyl)piperidin-2-yl)methoxy)-1-(4-o-tolyl-6,7-dihydrothieno[3,2-c]pyridin-5(4H)-yl)ethanone]: the values for the inhibition at 10 µM in test [1] and in test [2] were 64% and 104%, respectively.

For the molecule `O=C(C[C@@H](NS(=O)(=O)c1ccc2ccccc2c1)c1ccccc1)N1CCc2sccc2C1c1ccc(F)cc1` (stereo partly drawn) [Example 21, N-((1R)-3-(4-(4-fluorophenyl)-6,7-dihydrothieno[3,2-c]pyridin-5(4H)-yl)-3-oxo-1-phenylpropyl)naphthalene-2-sulfonamide], the inhibition at 10 µM in test [1] was found to be 34%; in test [2], 70%.

For the molecule `COc1cc(C)c(S(=O)(=O)N2CCCCC2COCC(=O)N2CCc3onc(CN(C)C)c3C2)c(C)c1` (centres unmarked) [Example 31, 1-(3-((dimethylamino)methyl)-6,7-dihydroisoxazolo[4,5-c]pyridin-5(4H)-yl)-2-((1-(4-methoxy-2,6-dimethylphenylsulfonyl)piperidin-2-yl)methoxy)ethanone], the inhibition at 10 µM in test [1] is 100%; in test [2], 105%.

Take `CCC1c2ccsc2CCN1C(=O)CCCC1CCCCN1S(=O)(=O)c1c(C)cc(OC)cc1C` (centres unmarked) [Example 23, 1-(4-Ethyl-6,7-dihydrothieno[3,2-c]pyridin-5(4H)-yl)-4-(1-(4-methoxy-2,6-dimethylphenylsulfonyl)piperidin-2-yl)butan-1-one]: the inhibition at 10 µM came out at 91% in test [1] and 105% in test [2].

On to `Cc1cc(S(=O)(=O)N2CCCCC2CCC(=O)N2CCc3onc(CN4CCCCC4)c3C2)c(C)cc1Cl` (centres unmarked) [Example 06, 3-(1-(4-chloro-2,5-dimethylphenylsulfonyl)piperidin-2-yl)-1-(3-(piperidin-1-ylmethyl)-6,7-dihydroisoxazolo[4,5-c]pyridin-5(4H)-yl)propan-1-one], for which the values for the inhibition at 10 µM in test [1] and in test [2] were 93% and 57%, respectively.

`Cc1cc(S(=O)(=O)N2CCCCC2CCC(=O)N2CCc3sccc3C2c2cccc(F)c2)c(C)cc1Cl` (centres unmarked) [Example 35, 3-(1-(4-chloro-2,5-dimethylphenylsulfonyl)piperidin-2-yl)-1-(4-(3-fluorophenyl)-6,7-dihydrothieno[3,2-c]pyridin-5(4H)-yl)propan-1-one]: the inhibition at 10 µM turned out to be 41% in test [1] and 3% in test [2].

As to `Cc1cccc(Cl)c1S(=O)(=O)N1CCCC[C@H]1COCC(=O)N1CCc2sc(CN3CCCCC3)cc2C1` [Example 59, 2-[[(2S)-1-[(2-chloro-6-methyl-phenyl)sulfonyl]-piperidin-2-yl]-methoxy]-1-[2-(piperidin-1-yl-methyl)-4,5,6,7-tetrahydro-thieno[3,2-c]pyridin-5-yl]-ethanone], the inhibition at 10 µM was 100% in test [1] and 104% in test [2].

Consider `Cc1cc(S(=O)(=O)N2CCCCC2CCC(=O)N2CCc3sccc3C2c2ccncc2)c(C)cc1Cl` (centres unmarked) [Example 55, 3-[1-[(4-chloro-2,5-dimethyl-phenyl)sulfonyl]-piperidin-2-yl]-1-(4-pyridin-4-yl-4,5,6,7-tetrahydro-thieno[3,2-c]pyridin-5-yl)-propan-1-one], for which the inhibition at 10 µM in test [1] came out at 88%; in test [2], 103%.

Regarding `COc1cc(C)c(S(=O)(=O)N2CCCCC2CCCC(=O)N2CCc3nc(Cc4ccncc4)sc3C2)c(C)c1` (centres unmarked) [Example 43, 4-(1-(4-methoxy-2,6-dimethylphenylsulfonyl)piperidin-2-yl)-1-(2-(pyridin-4-ylmethyl)-6,7-dihydrothiazolo[5,4-c]pyridin-5(4H)-yl)butan-1-one], the inhibition at 10 µM in test [1] and in test [2] was 99% each time.

Consider `COc1cc(C)c(S(=O)(=O)N2CCCCC2CCC(=O)N2CCc3onc(-c4ccncc4)c3C2)c(C)c1` (centres unmarked) [Example 01, 3-(1-(4-Methoxy-2,6-dimethylphenylsulfonyl)piperidin-2-yl)-1-(3-(pyridin-4-yl)-6,7-dihydroisoxazolo[4,5-c]pyridin-5(4H)-yl)propan-1-one], for which the inhibition at 10 µM amounted to 46% in test [1] and 98% in test [2].
